Legend:
[1] = tested on: CREB, BDNF, PSD95; assay: mRNA of CREB, BDNF, PSD95 in brains of chronically treated WT mice; format: in vivo; conditions: brains from WT mice treated chronically
Procedure: The impact of Aftin-5 on gene expression of different biomarkers was determined by measuring mRNA levels of selected BDNF, CREB, PS95, INS Receptor/IGF-1 receptor, IL-1β, IL-6 in OHSC treated chronically with Aftin-5 or in a total brain from mice exposed to Aftin-5 at either 8 or 30 mg/Kg. Total RNA was extracted with TRIzol@ reagent and purified on RNeasy® minikit columns (Qiagen, Courtaboeuf, France). Briefly, cells were lysed with 0.5 mL of TRIzol@ reagent by pipetting. After addition of 100 μL of chloroform, mixtures were centrifuged at 10000 g for 15 min at 4° C., supernatants mixed with 600 μL of 70% ethanol and loaded onto RNeasy® columns. Total RNA was washed and eluted with RNase-free water according to manufacturer's protocol and stored at −80° C. RNA concentration was measured spectrophotometrically at 260 nm in a NanoDrop 2000c (Thermo Scientific, Villebon-sur-Yvette, France) (sample A260 nm/A280 nm ratios over 1.8 indicated reduced genomic DNA contamination). cDNAs were synthesized from 0.5 μg of total RNA with RT^2 First Strand kit (Qiagen, Courtaboeuf, France) according to the manufacturer's protocol and stored at −80° C. […] Threshold cycles (Ct) of target gene and cyclophilin A (Ppia−control housekeeping gene) were recorded and gene expression was calculated as 2^−ΔΔCt(ΔΔCt=ΔCttreated−ΔCtcontrol, ΔCt=Cttarget−CtPpia). […]

[2] = tested on: InsR (insulin-receptor); assay: Insulin receptor mRNA in OHSC (RT-qPCR); format: cell-based, mice; conditions: 50 μM for 10 days, P<0.05
Procedure: FIG. 12. Plots illustrating the effect of Aftin-5 on relative mRNA expression levels of murine insulin-like growth factor-1 receptor (IGF1-R; (A)) and murine insulin receptor (Insr; (B)) in organotypic hippocampal slice cultures (OHSC). OHSC culture media of OHSC were replaced by incubation medium containing Aftin-5 (50 μM; A50) or vehicle (0.1% DMSO; Veh). 10 days later, total mRNA in lysate was isolated and purified, cDNAs were then synthesized from […] of total mRNA. cDNAs were amplified by quantitative RT-PCR and the relative expression of specific genes was normalized to the housekeeping gene HPRT1 (2^−ΔCt) Mann-Whitney tests were performed and *p<0.05 indicates significant differences between Aftin-5 and control conditions. Data expressed as means+/−SEM from q=3 independent experiments with n=4-6 inserts/condition and 10 slices/insert. […]
The impact of Aftin-5 on gene expression of different biomarkers was determined by measuring mRNA levels of selected BDNF, CREB, PS95, INS Receptor/IGF-1 receptor, IL-1β, IL-6 in OHSC treated chronically with Aftin-5 or in a total brain from mice exposed to Aftin-5 at either 8 or 30 mg/Kg. […] Threshold cycles (Ct) of target gene and cyclophilin A (Ppia−control housekeeping gene) were recorded and gene expression was calculated as 2^−ΔΔCt(ΔΔCt=ΔCttreated−ΔCtcontrol, ΔCt=Cttarget−CtPpia). […]

[3] = tested on: non-spatial medium-term memory; assay: Novel object recognition (NOR) test; format: in vivo, C57Bl/6J mice; conditions: WT mice, 8 mg/kg subcutaneous, 28 days
Procedure: FIG. 14. Plots illustrating the effect of Aftin-5 on non-spatial medium-term memory. C57B1/6J mice were exposed sub-cutaneously to (A) the vehicle condition (DMSO/PEG) or (B) Aftin-5 at 8 mg/kg, during 28 days through an Alzet pump. 3-4 weeks later, cognitive abilities were assessed through different novel object recognition (NOR) tests, including the recognition of familiar objects (dark gray bars) or novel objects (light gray bars). Two-way ANOVA and Bonferroni post-hoc tests were performed and *p<0.05 indicates significant differences between Aftin-5 and control conditions, **p<0.01. Data expressed as means+/−SEM with n=15 mice/condition.
The NOR test is a test to assess the medium-term non-spatial memory (object). This test takes place in 3 sessions: the Open Field, the Familiarization session and the Test session. The first session allows the habituation of the mouse to the arena. The mouse is placed in the empty arena for 15 min. During this session, the velocity, locomotor activity and anxiety of the mouse are checked. The second session is to familiarize the animal with objects. For this, 24 hours after the Open Field, the mouse is placed in the arena containing two identical objects. The mouse will explore the arena and the two objects placed in the center for 10 min. Finally, after an interval of pre-established time (24 hours), the mouse is placed again in the same arena. […]

[4] = tested on: IL-6 cytokine; assay: Secreted IL-6 in LPS-treated human primary glial cells (MSD ELISA); format: cell-based; conditions: LPS 6 h, then purine derivative 10 μM for 18 h
Procedure: For assessing the cytokine production, human primary glial cells were grown until confluent on coated collagen 12-well plates. Cells were serum-starved in glial serum-free medium for 2 h and treated with LPS for 6 h before treatment with purine derivatives (10 μM) for an additional 18 h. Supernatants were harvested and secreted IL-6 cytokine was measured by ELISA by the mean of the Meso Scale Discovery (MSD) technology. Briefly, a 96-well plate having 1 spot pre-coated with the corresponding antibody is provided by MSD Technology. Before adding the samples, a first saturation step is required. Once the plate is saturated and washed, 25 μL of sample (or calibrators) per well are loaded and incubated for 1 hour. Then the plate is washed and incubated with 25 μL of the Detection Antibody solution (MSD SULFO-TAG) for 1 hour. At the end of the incubation, the plate is washed and then a chemical solution (Read buffer 1×) is added allowing electrochemiluminescence. After a short incubation (5 min) at room temperature, the plate is read on the QUICK Plex SQ120. The instrument measures the intensity of the light electrochemiluminescence.

[5] = tested on: GSK-3β; assay: GSK-3β activity in organotypic slice cultures from transgenic mice overexpressing phosphorylated Tau; format: cell-based
Source text: Unpredictably, Aftin-5 is shown herein to efficiently promote an attenuation of the phosphorylation of Tau protein (see example 5).

InsR-mRNA [2]: increased dramatically
SMILES: CC[C@H](CO)Nc1nc(N(C)c2ccccc2)c2ncn(C(C)C)c2n1 [Aftin-5]
mRNA for CREB, BDNF as well as for PSD95 in brain [1]: high mRNA
improvement of long term object recognition memory in NOR test [3]: does not achieve significance
Anti-inflammatory Compounds (secreted IL-6) [4]: +(>1 μM) (“+” means that the tested compound shows an anti-inflammatory and/or attenuation of Tau's phosphorylation property with a concentration higher than 1 μM)
activity of GSK-3β [5]: reduces

From patent US11472807B2, “Purine derivatives for use as medicament and for use in treating neurodegenerative or neuro-inflammatory disorders” (COMMISSARIAT À L'ENERGIE ATOMIQUE ET AUX ENERGIES …, priority 2017, dated 2022)
